The values that follow come from ChEMBL document CHEMBL3875185, “Structure-anticonvulsant activity studies in the group of (E)-N-cinnamoyl aminoalkanols derivatives monosubstituted in phenyl ring with 4-Cl, 4-CH3 or 2-CH3” (Bioorg Med Chem, 2017).

By inhibition is commonly meant the drop in the measured response relative to a control, in per cent.

Data set [1] deals with Rattus norvegicus. Briefly: Anticonvulsant activity in po dosed maximal electroshock induced seizure Sprague-Dawley rat model assessed as suppression in hindlimb tonic extension by measuring time to peak effect. It is filed as functional. (Protection in the maximal electroshock model is a classic sign of anticonvulsant action.)
Data set [2] concerns the target T1, Galanin receptor type 1 (Homo sapiens) (UniProt P47211).
T1 sequence (whole entry): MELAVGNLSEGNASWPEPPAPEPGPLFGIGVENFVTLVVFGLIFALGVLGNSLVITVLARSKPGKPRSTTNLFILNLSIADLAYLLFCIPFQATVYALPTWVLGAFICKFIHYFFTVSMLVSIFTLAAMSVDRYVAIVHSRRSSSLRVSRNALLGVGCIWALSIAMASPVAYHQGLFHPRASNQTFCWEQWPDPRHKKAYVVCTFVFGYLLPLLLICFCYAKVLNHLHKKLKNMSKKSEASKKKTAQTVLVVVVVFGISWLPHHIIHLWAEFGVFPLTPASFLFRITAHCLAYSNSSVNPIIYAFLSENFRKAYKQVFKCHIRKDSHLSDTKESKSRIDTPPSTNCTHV
Kind of data set: Displacement of [125I]galanin from human recombinant GAL1 receptor expressed in HEK293 cells at 100 uM measured after 60 mins by scintillation counting method relative to control. It is filed as cell-based.

Data set [3] concerns the target Prostaglandin E2 receptor EP4 subtype (Homo sapiens) (UniProt P35408). Briefly: Displacement of [3H]PGE2 from human recombinant EP4 receptor expressed in HEK293 cells at 100 uM measured after 120 mins by scintillation counting method relative to control. It is filed as cell-based. For orientation: In a radioligand displacement assay an active substance lowers the binding of a labelled ligand.

Data set [4] has as its target D(2) dopamine receptor (Homo sapiens) (UniProt P14416). Kind of data set: Displacement of [3H]methyl-spiperone from human recombinant dopamine D2S receptor expressed in HEK293 cells at 100 uM measured after 60 mins by scintillation counting method relative to control. The format is cell-based.
The target of data set [5] is T2, C-X-C chemokine receptor type 2 (Homo sapiens) (UniProt P25025).
T2 sequence (whole entry): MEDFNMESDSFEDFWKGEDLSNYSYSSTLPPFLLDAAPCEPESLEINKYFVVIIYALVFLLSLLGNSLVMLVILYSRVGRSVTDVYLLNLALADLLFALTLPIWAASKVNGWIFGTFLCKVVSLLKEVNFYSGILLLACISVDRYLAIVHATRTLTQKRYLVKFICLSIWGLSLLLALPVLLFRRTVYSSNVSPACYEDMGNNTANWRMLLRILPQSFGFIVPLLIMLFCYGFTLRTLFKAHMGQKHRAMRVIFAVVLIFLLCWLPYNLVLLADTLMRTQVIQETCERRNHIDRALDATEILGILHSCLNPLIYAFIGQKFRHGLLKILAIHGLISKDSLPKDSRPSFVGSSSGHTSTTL
Briefly: Displacement of [125I]IL-8 from human recombinant CXCR2 expressed in HEK293 cells at 100 uM measured after 60 mins by scintillation counting method relative to control. It is filed as cell-based.

For data set [6], the target named is T3, Adenosine receptor A3 (Homo sapiens) (UniProt P0DMS8).
T3 sequence (whole entry): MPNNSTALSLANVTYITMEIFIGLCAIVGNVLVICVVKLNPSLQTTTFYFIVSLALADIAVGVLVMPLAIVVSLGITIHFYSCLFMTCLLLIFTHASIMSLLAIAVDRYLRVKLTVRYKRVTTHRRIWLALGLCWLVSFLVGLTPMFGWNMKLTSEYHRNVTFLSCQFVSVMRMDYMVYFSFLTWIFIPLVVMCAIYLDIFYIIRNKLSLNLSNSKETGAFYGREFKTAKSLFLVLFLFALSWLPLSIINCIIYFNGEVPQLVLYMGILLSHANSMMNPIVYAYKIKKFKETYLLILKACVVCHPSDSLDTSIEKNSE
Briefly: Displacement of [125I]AB-MECA from human recombinant adenosine receptor A3 expressed in HEK293 cells at 100 uM measured after 120 mins by scintillation counting method relative to control. The format is cell-based.

The test system of the next data set is Jurkat. Briefly: Displacement of [3H]DTG from sigma receptor in human Jurkat cells at 100 uM measured after 120 mins by scintillation counting method relative to control. It is filed as cell-based.
In the next data set the test system is Mus musculus. Briefly: Neurotoxicity in mouse assessed as induction of motor impairment at 100 mg/kg, ip measured at 4 hrs post dose by rotarod method. The format is toxicity, organism-based. To be noted: in vivo. (Falling from the rotarod earlier than controls is read as motor impairment.)
The test system of data set [7] is Rattus norvegicus. Briefly: Neurotoxicity in Sprague-Dawley rat assessed as behavioral change at 30 mg/kg, po measured at 1 hr post dose. It is filed as toxicity, organism-based. To be noted: in vivo.
The target in data set [8] is T4, 5-hydroxytryptamine receptor 2C (Homo sapiens) (UniProt P28335).
T4 sequence (whole entry): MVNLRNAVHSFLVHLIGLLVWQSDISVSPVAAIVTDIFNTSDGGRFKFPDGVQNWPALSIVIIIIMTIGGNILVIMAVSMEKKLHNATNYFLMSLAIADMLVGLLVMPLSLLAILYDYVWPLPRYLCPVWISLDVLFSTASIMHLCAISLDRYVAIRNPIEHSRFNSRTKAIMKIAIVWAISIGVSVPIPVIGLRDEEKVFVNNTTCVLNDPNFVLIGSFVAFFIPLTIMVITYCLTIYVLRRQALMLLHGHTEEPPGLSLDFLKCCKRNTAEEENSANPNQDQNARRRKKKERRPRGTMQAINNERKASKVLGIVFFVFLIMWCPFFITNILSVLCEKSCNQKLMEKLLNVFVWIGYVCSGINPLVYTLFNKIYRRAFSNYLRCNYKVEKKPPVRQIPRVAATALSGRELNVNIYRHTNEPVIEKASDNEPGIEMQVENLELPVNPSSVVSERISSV
Briefly: Displacement of [3H]mesulergine from human recombinant 5HT2C receptor expressed in HEK293 cells at 100 uM measured after 120 mins by scintillation counting method relative to control. It is filed as cell-based.

A short description of data set [9]: Protection index, ratio of TD50 for neurotoxicity in ip dosed mouse to ED50 for ip dosed 6-Hz induced seizure mouse model at 32 mA. The format is toxicity, organism-based. To be noted: in vivo, read-out: Ratio TD50/ED50.
Data set [10] is filed under the species Rattus norvegicus. Kind of data set: Displacement of [35S]dATPaS from rat cerebral cortex P2Y receptor at 100 uM measured after 60 mins by scintillation counting method relative to control.
Data set [11] addresses Beta-1 adrenergic receptor (Homo sapiens) (UniProt P08588). Kind of data set: Displacement of [3H]CGP 12177 from human recombinant beta1 adrenergic receptor expressed in HEK293 cells at 100 uM measured after 60 mins by scintillation counting method relative to control. It is filed as cell-based.
The target of data set [12] is Mu-type opioid receptor (Homo sapiens) (UniProt P35372). Briefly: Displacement of [3H]DAMGO from human recombinant mu-opioid receptor expressed in HEK293 cells at 100 uM measured after 120 mins by scintillation counting method relative to control. It is filed as cell-based.
Data set [13] is described as follows: Protection index, ratio of TD50 for neurotoxicity in ip dosed mouse to ED50 for ip dosed pentylenetetrazole induced seizure mouse model. The format is toxicity, organism-based. To be noted: in vivo, read-out: Ratio TD50/ED50.
The target of data set [14] is Kappa-type opioid receptor (Rattus norvegicus) (UniProt P34975). Kind of data set: Displacement of [3H]U 69593 from rat recombinant kappa-opioid receptor expressed in CHO cells at 100 uM measured after 60 mins by scintillation counting method relative to control. The format is cell-based.
For data set [15], the system named is Rattus norvegicus. Kind of data set: Neurotoxicity in ip dosed Sprague-Dawley rat assessed as behavioral change by measuring time to peak effect. The format is toxicity, organism-based. To be noted: in vivo.

The structures appear in SMILES notation.

Chain of D(2) dopamine receptor (Homo sapiens) (P14416 whole entry): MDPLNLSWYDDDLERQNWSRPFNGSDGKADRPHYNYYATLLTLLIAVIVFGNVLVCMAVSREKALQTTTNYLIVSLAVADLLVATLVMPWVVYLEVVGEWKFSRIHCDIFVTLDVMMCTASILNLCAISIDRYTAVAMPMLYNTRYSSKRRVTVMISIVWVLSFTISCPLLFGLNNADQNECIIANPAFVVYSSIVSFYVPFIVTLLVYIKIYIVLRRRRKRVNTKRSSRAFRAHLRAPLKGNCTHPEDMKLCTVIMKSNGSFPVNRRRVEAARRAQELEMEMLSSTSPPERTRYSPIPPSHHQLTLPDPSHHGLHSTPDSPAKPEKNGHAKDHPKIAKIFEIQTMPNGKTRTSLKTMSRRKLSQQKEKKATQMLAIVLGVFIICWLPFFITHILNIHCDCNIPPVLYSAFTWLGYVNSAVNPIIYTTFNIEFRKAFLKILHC
Chain of Mu-type opioid receptor (Homo sapiens) (P35372 whole entry): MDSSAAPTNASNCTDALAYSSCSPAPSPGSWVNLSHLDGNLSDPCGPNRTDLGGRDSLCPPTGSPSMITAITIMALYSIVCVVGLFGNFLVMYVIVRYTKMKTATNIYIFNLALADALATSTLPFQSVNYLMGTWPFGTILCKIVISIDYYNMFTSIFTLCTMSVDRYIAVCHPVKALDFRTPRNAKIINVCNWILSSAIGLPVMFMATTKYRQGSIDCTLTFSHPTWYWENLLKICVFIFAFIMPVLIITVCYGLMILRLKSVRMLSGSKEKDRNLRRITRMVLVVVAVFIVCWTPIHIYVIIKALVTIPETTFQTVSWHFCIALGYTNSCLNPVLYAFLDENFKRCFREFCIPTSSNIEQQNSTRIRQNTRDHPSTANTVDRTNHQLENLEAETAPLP
Chain of Kappa-type opioid receptor (Rattus norvegicus) (P34975 whole entry): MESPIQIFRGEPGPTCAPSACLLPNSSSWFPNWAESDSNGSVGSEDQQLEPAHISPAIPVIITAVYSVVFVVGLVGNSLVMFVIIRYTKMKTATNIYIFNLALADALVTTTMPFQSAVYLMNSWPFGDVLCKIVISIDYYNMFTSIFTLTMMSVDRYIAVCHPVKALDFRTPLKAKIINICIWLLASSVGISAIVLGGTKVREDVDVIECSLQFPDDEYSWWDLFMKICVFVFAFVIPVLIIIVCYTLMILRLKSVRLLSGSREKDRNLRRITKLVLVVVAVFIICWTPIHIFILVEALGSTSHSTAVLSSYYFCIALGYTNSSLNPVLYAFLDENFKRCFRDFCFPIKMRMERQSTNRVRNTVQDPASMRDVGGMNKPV
Chain of Prostaglandin E2 receptor EP4 subtype (Homo sapiens) (P35408 whole entry): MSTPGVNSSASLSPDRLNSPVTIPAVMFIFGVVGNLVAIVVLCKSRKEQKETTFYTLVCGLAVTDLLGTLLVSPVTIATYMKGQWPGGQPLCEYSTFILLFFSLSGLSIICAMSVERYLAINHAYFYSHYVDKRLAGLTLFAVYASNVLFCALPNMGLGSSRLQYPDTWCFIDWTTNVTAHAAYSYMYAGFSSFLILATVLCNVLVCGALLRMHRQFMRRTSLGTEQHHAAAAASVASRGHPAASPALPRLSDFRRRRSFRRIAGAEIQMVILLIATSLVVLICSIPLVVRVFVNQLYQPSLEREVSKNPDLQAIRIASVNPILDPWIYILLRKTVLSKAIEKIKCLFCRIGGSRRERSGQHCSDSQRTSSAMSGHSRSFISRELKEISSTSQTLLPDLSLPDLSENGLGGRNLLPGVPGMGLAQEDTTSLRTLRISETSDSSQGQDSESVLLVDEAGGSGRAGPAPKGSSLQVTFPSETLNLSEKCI
Chain of Beta-1 adrenergic receptor (Homo sapiens) (P08588 whole entry, looked up): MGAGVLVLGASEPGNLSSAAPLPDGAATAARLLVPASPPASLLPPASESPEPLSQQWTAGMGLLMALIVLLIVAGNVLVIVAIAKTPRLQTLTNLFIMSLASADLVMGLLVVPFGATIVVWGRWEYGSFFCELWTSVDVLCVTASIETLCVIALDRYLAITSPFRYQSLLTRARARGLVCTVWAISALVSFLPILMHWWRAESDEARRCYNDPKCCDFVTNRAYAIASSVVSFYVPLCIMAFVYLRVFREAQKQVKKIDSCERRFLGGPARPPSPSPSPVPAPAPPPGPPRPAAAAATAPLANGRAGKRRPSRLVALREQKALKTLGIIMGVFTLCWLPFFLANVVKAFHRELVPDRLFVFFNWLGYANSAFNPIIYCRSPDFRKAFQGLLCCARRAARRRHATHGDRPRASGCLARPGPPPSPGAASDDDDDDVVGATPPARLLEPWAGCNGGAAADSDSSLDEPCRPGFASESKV

Consider `Cc1ccccc1/C=C/C(=O)N[C@@H](C)CO`, for which the results for the Time in the data set on Rattus norvegicus [1] and in the data set with Rattus norvegicus [15] were 1 h and 0.5 h, respectively. Besides, the inhibition is 1.4% in data set [2]; 16.7% in data set [3]; 5% in [4]; 21.9% in data set [5]; 17.1% in data set [6]; -3.5% in the data set with Jurkat. The inhibition in data set [8] was 81.2%; in the data set listed under Rattus norvegicus [10] it was -6.1%; in [11] it was -2.8%; in data set [12], 0.4%; in data set [14], 14.8%. Besides, the Activity entry with Mus musculus and with Rattus norvegicus [7] was “Non-Toxic” in each case. The selectivity ratio in data set [9] amounted to 2.86; in [13], 2.57.

`CCC(CO)NC(=O)/C=C/c1ccc(Cl)cc1` (stereo unspecified): the figures for the Time with Rattus norvegicus [1] and in the data set on Rattus norvegicus [15] were 0.5 h and 1 h, respectively. Further, the inhibition in [2] was -1.2%; in data set [3], 29.7%; in [4], 1.8%; in data set [5] it was 27.1%; in data set [6], 52.5%; in the data set on Jurkat, 25.4%. Also, the inhibition in [8] is 24.5%; in the data set filed under Rattus norvegicus [10], 18.1%; in [11], -2.9%; in data set [12] it was 23.3%; in data set [14] it was 41.9%. Also, the Activity entry in the data set on Mus musculus and with Rattus norvegicus [7] was “Non-Toxic” in each case. For the same compound, the values for the selectivity ratio in data set [9] and in data set [13] were 3.41 and 2.18, respectively.

In the case of `CC(O)CNC(=O)/C=C/c1ccc(Cl)cc1` (stereo unspecified), the Time in the data set with Rattus norvegicus [1] and in the data set on Rattus norvegicus [15] was 0.5 h in each case. The inhibition in data set [2] is 6.6%; in data set [3] it was 23.6%; in data set [4], 8.7%; in data set [5] it was 27%; in data set [6], 29.9%; with Jurkat, 22.9%. Also, the inhibition amounted to 23.4% in data set [8]; 15% in the data set filed under Rattus norvegicus [10]; 0.7% in data set [11]; 11.3% in data set [12]; 31.6% in data set [14]. Also, the Activity entry with Mus musculus and in the data set with Rattus norvegicus [7] was “Non-Toxic” each time. Also, the selectivity ratio was 4.26 in data set [9] and 1.76 in data set [13].
